Measurements taken from patent US11203600B2 (Denali Therapeutics Inc., priority 2017, dated 2021).

Target: GST-hRIPK1 (8-327) (Homo sapiens (Human), UniProt Q13546)
Test: Fluorescent Polarization Binding (FP Binding) assay, RIPK1
Details: GST-hRIPK1 (8-327), mean of at least two independent experiments
Outline: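 Binding by fluorescence polarisation at RT: 10 nM baculovirus-expressed GST-hRIPK1 (8-327) and 5 nM fluorescent ligand, 30 min, in 50 mM HEPES pH 7.5, 50 mM MgCl2, 0.02% CHAPS, 1% DMSO. FP read at ex 531/em 595 nm. IC50 from normalised percent inhibition, mean of ≥2 experiments.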

Chain of GST-hRIPK1 (8-327) (Q13546 8-327): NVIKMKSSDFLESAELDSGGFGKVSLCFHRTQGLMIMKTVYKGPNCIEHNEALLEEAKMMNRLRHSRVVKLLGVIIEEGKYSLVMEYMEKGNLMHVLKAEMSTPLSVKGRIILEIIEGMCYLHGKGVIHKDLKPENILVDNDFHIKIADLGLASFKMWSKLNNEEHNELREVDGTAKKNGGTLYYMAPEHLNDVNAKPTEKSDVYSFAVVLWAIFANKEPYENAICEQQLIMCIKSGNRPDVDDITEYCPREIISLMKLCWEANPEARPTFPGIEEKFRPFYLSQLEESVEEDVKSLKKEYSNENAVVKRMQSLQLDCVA

| Compound | IC50 [nM] |
| --- | --- |
| COc1cc(C(F)(F)F)nc(N2CCC(F)(C(=O)N3CCOc4c(C#N)cncc4C3)CC2)n1 [Example 232, 4-[4-fluoro-1-[4-methoxy-6-(trifluoromethyl)pyrimidin-2-yl]piperidine-4-carbonyl]-3,5-dihydro-2H-pyrido[3,4-f][1,4]oxazepine-9-carbonitrile] | 100 to 1000 |
| COC1(C(=O)N2CCOc3c(C#N)cncc3C2)CCN(c2ncc(F)c(C3CC3)n2)CC1 [Example 233, 4-[1-(4-cyclopropyl-5-fluoro-pyrimidin-2-yl)-4-methoxy-piperidine-4-carbonyl]-3,5-dihydro-2H-pyrido[3,4-f][1,4]oxazepine-9-carbonitrile] | 0.1 to 100 |
| COC1(C(=O)N2CCOc3ccncc3C2)CCN(c2ncc(F)cn2)CC1 [Example 234, 3,5-dihydro-2H-pyrido[3,4-f][1,4]oxazepin-4-yl-[1-(5-fluoropyrimidin-2-yl)-4-methoxy-4-piperidyl]methanone] | 0.1 to 100 |
| COc1nc(N2CCC(OC)(C(=O)N3CCOc4ccncc4C3)CC2)ncc1F [Example 235, 3,5-dihydro-2H-pyrido[3,4-f][1,4]oxazepin-4-yl-[1-(5-fluoro-4-methoxy-pyrimidin-2-yl)-4-methoxy-4-piperidyl]methanone] | 0.1 to 100 |
| COc1nc(N2CCC(C(=O)N3CCOc4c(F)cncc4C3)CC2)ncc1F [Example 236] | 0.1 to 100 |
| COc1nc(N2CCC(C(=O)N3CCCc4ccccc4C3)CC2)ncc1F [Example 237, [1-(5-fluoro-4-methoxy-pyrimidin-2-yl)-4-piperidyl]-(1,3,4,5-tetrahydro-2-benzazepin-2-yl)methanone] | 0.1 to 100 |
| COc1nc(N2CCC(C(=O)N3CCOc4ccncc4C3)CC2)ncc1F [Example 238] | 0.1 to 100 |
| COC1(C(=O)N2CCOc3c(C#N)cncc3C2)CCN(c2ncccn2)CC1 [Example 239, 4-(4-methoxy-1-pyrimidin-2-yl-piperidine-4-carbonyl)-3,5-dihydro-2H-pyrido[3,4-f][1,4]oxazepine-9-carbonitrile] | 0.1 to 100 |
| CC1(C(=O)N2CCOc3c(C#N)cncc3C2)CCCCO1 (stereo not shown) [Example 240, 4-(2-methyltetrahydropyran-2-carbonyl)-3,5-dihydro-2H-pyrido[3,4-f][1,4]oxazepine-9-carbonitrile] | 100 to 1000 |
| N#Cc1cncc2c1OCCN(C(=O)C1CCN(c3ncc(F)cn3)C[C@@H]1F)C2 (stereo partly drawn) [Example 241, 4-[(3,4)-cis-3-fluoro-1-(5-fluoropyrimidin-2-yl)piperidine-4-carbonyl]-3,5-dihydro-2H-pyrido[3,4-f][1,4]oxazepine-9-carbonitrile] | 100 to 1000 |
| N#Cc1cncc2c1OCCN(C(=O)C1CCN(c3ncc(F)cn3)C[C@@H]1F)C2 (stereo partly drawn) [Example 242, 4-[(3,4)-trans-3-fluoro-1-(5-fluoropyrimidin-2-yl)piperidine-4-carbonyl]-3,5-dihydro-2H-pyrido[3,4-f][1,4]oxazepine-9-carbonitrile] | 0.1 to 100 |
| N#Cc1cncc2c1OCCN(C(=O)C1CCN(c3ncc(F)cn3)CC1(F)F)C2 (stereo not shown) [Example 243, 4-[3,3-difluoro-1-(5-fluoropyrimidin-2-yl)piperidine-4-carbonyl]-3,5-dihydro-2H-pyrido[3,4-f][1,4]oxazepine-9-carbonitrile] | 100 to 1000 |
| N#Cc1cncc2c1OCCN(C(=O)C1=CCN(c3ncc(F)cn3)CC1)C2 [Example 245, 4-[1-(5-fluoropyrimidin-2-yl)-3,6-dihydro-2H-pyridine-4-carbonyl]-3,5-dihydro-2H-pyrido[3,4-f][1,4]oxazepine-9-carbonitrile] | 100 to 1000 |
| N#Cc1cncc2c1OCCN(C(=O)C1CCN(c3nccc4ncnn34)CC1(F)F)C2 (stereo not shown) [Example 246, 4-[3,3-difluoro-1-([1,2,4]triazolo[1,5-c]pyrimidin-5-yl)piperidine-4-carbonyl]-3,5-dihydro-2H-pyrido[3,4-f][1,4]oxazepine-9-carbonitrile] | 100 to 1000 |
| O=C(C1CCN(c2ncc(F)cn2)C[C@@H]1F)N1CCOc2c(F)cncc2C1 (stereo partly shown) [Example 247] | 0.1 to 100 |
| O=C(C1=CCN(c2ncc(F)cn2)CC1)N1CCOc2c(F)cncc2C1 [Example 248] | 100 to 1000 |
